# Measured values as given in PubChem BioAssay AID248 (DTP/NCI, 2004).
# Values joined by “and” are separate entries in the source; they are usually repeats but may differ in a detail not shown here. Identical values can stand only once. Toxic doses and inconclusive results are not listed.
# System: L1210 leukemia ip in BDF1 mice, survival T/C
# Test: NCI In Vivo Anticancer Drug Screen. Data for tumor model L1210 Leukemia (intraperitoneal) in B6D2F1 (BDF1) mice
# Details: endpoint: mean survival time, higher = longer survival
# Procedure, shortened: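 Antitumor effect is assessed in tumor-bearing animals. Survival in the compound arm is compared with a vehicle-dosed control arm and expressed as their quotient.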
# [1] = dose: 12.5 mg/kg/injection, schedule: Q04DX003 (ip), vehicle: saline with Tween-80
# [2] = dose: 25.0 mg/kg/injection, schedule: Q04DX003 (ip), vehicle: saline with Tween-80
# [3] = dose: 50.0 mg/kg/injection, schedule: Q04DX003 (ip), vehicle: saline with Tween-80
# [4] = dose: 100.0 mg/kg/injection, schedule: Q04DX003 (ip), vehicle: Klucel (hydroxypropylcellulose) (HPC)
# [5] = dose: 200.0 mg/kg/injection, schedule: Q04DX003 (ip), vehicle: Klucel (hydroxypropylcellulose) (HPC)
# [6] = dose: 400.0 mg/kg/injection, schedule: Q04DX003 (ip), vehicle: Klucel (hydroxypropylcellulose) (HPC)
# [7] = dose: 25.0 mg/kg/injection, schedule: Q01DX009 (ip), vehicle: saline with Tween-80
# [8] = dose: 100.0 mg/kg/injection, schedule: Q01DX001 (ip), vehicle: saline
# [9] = dose: 200.0 mg/kg/injection, schedule: Q01DX001 (ip), vehicle: saline
# [10] = dose: 400.0 mg/kg/injection, schedule: Q01DX001 (ip), vehicle: saline
# [11] = dose: 100.0 mg/kg/injection, schedule: Q04DX002 (ip), vehicle: saline
# [12] = dose: 200.0 mg/kg/injection, schedule: Q04DX002 (ip), vehicle: saline
# [13] = dose: 100.0 mg/kg/injection, schedule: Q01DX001 (ip), vehicle: carboxymethylcellulose (CMC)
# [14] = dose: 200.0 mg/kg/injection, schedule: Q01DX001 (ip), vehicle: carboxymethylcellulose (CMC)
# [15] = dose: 400.0 mg/kg/injection, schedule: Q01DX001 (ip), vehicle: carboxymethylcellulose (CMC)
# [16] = dose: 100.0 mg/kg/injection, schedule: Q01DX001 (ip), vehicle: saline with Tween-80
# [17] = dose: 200.0 mg/kg/injection, schedule: Q01DX001 (ip), vehicle: saline with Tween-80
smiles,measurement,setting,value
Fc1ccc(/C=N\N=C(N/N=C/c2ccc(F)cc2)N/N=C/c2ccc(F)cc2)cc1,T/C,[1],101 % of control
same,T/C,"dose: 15.0 mg/kg/injection, schedule: Q01DX Z (ip), vehicle: carboxymethylcellulose (CMC)",97 % of control
same,T/C,[2],101 % of control
same,T/C,"dose: 30.0 mg/kg/injection, schedule: Q01DX Z (ip), vehicle: carboxymethylcellulose (CMC)",97 % of control
same,T/C,"dose: 30.0 mg/kg/injection, schedule: Q01DX Z (oral), vehicle: carboxymethylcellulose (CMC)",100 % of control
same,T/C,[3],104 % of control
same,T/C,"dose: 60.0 mg/kg/injection, schedule: Q01DX Z (ip), vehicle: carboxymethylcellulose (CMC)",101 % of control
same,T/C,"dose: 60.0 mg/kg/injection, schedule: Q01DX Z (oral), vehicle: carboxymethylcellulose (CMC)",93 % of control and 100 % of control
same,T/C,[4],90 % of control
same,T/C,"dose: 120.0 mg/kg/injection, schedule: Q01DX Z (ip), vehicle: carboxymethylcellulose (CMC)",89 % of control
same,T/C,"dose: 120.0 mg/kg/injection, schedule: Q01DX Z (oral), vehicle: carboxymethylcellulose (CMC)",98 % of control and 100 % of control
same,T/C,[5],100 % of control
same,T/C,"dose: 240.0 mg/kg/injection, schedule: Q01DX Z (oral), vehicle: carboxymethylcellulose (CMC)",102 % of control and 105 % of control
same,T/C,[6],87 % of control
O=C(Cc1ccc(F)cc1)c1ccccc1,T/C,"dose: 100.0 mg/kg/injection, schedule: Q04DX003 (ip), vehicle: saline with Tween-80",98 % of control
same,T/C,"dose: 200.0 mg/kg/injection, schedule: Q04DX003 (ip), vehicle: saline with Tween-80",98 % of control
same,T/C,"dose: 400.0 mg/kg/injection, schedule: Q04DX003 (ip), vehicle: saline with Tween-80",96 % of control
Cc1oc2ccc(O)c(N=Nc3ccc(Cl)cc3)c2c1C,T/C,[4],100 % of control
same,T/C,[5],90 % of control
same,T/C,[6],95 % of control
CC(C)(C)c1ccc(SC(=O)Nc2cc([N+](=O)[O-])ccc2Cl)cc1,T/C,[7],90 % of control
same,T/C,"dose: 50.0 mg/kg/injection, schedule: Q01DX009 (ip), vehicle: saline with Tween-80",101 % of control
same,T/C,"dose: 100.0 mg/kg/injection, schedule: Q01DX009 (ip), vehicle: saline with Tween-80",100 % of control and 92 % of control
CCOC(=O)NCCO,T/C,[8],103 % of control
same,T/C,[9],95 % of control
same,T/C,[10],97 % of control
CCOC(=O)NCC(CCN(C)CC)(c1cccc2ccccc12)C(C)C (stereo not drawn),T/C,"dose: 12.5 mg/kg/injection, schedule: Q01DX009 (ip), vehicle: saline with Tween-80",93 % of control
same,T/C,[1],93 % of control
same,T/C,[7],98 % of control
same,T/C,[2],98 % of control
same,T/C,[3],93 % of control
CN(C=O)c1ccccc1,T/C,[11],106 % of control
same,T/C,[12],102 % of control
same,T/C,"dose: 400.0 mg/kg/injection, schedule: Q04DX002 (ip), vehicle: saline",95 % of control
CC1(C)N=C(N)N=C(N)N1c1cccc(C(=O)c2ccccc2)c1,T/C,"dose: 25.0 mg/kg/injection, schedule: Q01DX001 (ip), vehicle: saline with Tween-80",98 % of control
same,T/C,"dose: 50.0 mg/kg/injection, schedule: Q01DX001 (ip), vehicle: saline with Tween-80",90 % of control
CC(=O)OC(CO)C(NC(=O)N1C(=O)C=CC1=O)NC(=O)N1C(=O)C=CC1=O (stereo not drawn),T/C,[13],95 % of control
same,T/C,[14],101 % of control
same,T/C,[15],113 % of control
CC(C)=NOC(=O)NCCCl,T/C,[4],103 % of control
same,T/C,[5],101 % of control
same,T/C,[6],97 % of control
CN(c1ccccc1)c1cc(=O)[nH]c(=O)[nH]1,T/C,"dose: 100.0 mg/kg/injection, schedule: Q01DX001 (ip), vehicle: Klucel (hydroxypropylcellulose) (HPC)",95 % of control
same,T/C,"dose: 200.0 mg/kg/injection, schedule: Q01DX001 (ip), vehicle: Klucel (hydroxypropylcellulose) (HPC)",104 % of control
same,T/C,"dose: 400.0 mg/kg/injection, schedule: Q01DX001 (ip), vehicle: Klucel (hydroxypropylcellulose) (HPC)",99 % of control
O=C1O/C(=C2\OCc3ccccc32)c2ccccc21,T/C,"dose: 50.0 mg/kg/injection, schedule: Q01DX001 (ip), vehicle: carboxymethylcellulose (CMC)",91 % of control
same,T/C,[13],107 % of control
same,T/C,[14],100 % of control
same,T/C,[15],91 % of control
OC1(c2ccccc2)C2=CC(c3ccccc3)=C(c3ccccc3)CC2C(c2ccccc2)C1c1ccccc1 (stereo not drawn),T/C,[16],100 % of control
same,T/C,[17],91 % of control
same,T/C,"dose: 400.0 mg/kg/injection, schedule: Q01DX001 (ip), vehicle: saline with Tween-80",96 % of control
OC(Cc1[nH]c2ccccc2c1C(O)(C(F)(F)F)C(F)(F)F)(C(F)(F)F)C(F)(F)F,T/C,"dose: 100.0 mg/kg/injection, schedule: Q04DX003 (ip), vehicle: other",109 % of control
same,T/C,"dose: 200.0 mg/kg/injection, schedule: Q04DX003 (ip), vehicle: other",109 % of control
same,T/C,"dose: 400.0 mg/kg/injection, schedule: Q04DX003 (ip), vehicle: other",98 % of control
COC1=CC(=O)C=CC1=O,T/C,"dose: 1.5 mg/kg/injection, schedule: Q01DX009 (ip), vehicle: saline",90 % of control
same,T/C,"dose: 3.0 mg/kg/injection, schedule: Q01DX009 (ip), vehicle: saline",88 % of control
same,T/C,"dose: 6.0 mg/kg/injection, schedule: Q01DX009 (ip), vehicle: saline",90 % of control
C=C(C)C(=O)OCC(O)C[N+](C)(C)C (stereo not drawn),T/C,"dose: 25.0 mg/kg/injection, schedule: Q01DX009 (ip), vehicle: saline",98 % of control
same,T/C,"dose: 50.0 mg/kg/injection, schedule: Q01DX009 (ip), vehicle: saline",101 % of control
same,T/C,"dose: 75.0 mg/kg/injection, schedule: Q01DX001 (ip), vehicle: saline",101 % of control
same,T/C,"dose: 100.0 mg/kg/injection, schedule: Q01DX009 (ip), vehicle: saline",97 % of control
same,T/C,"dose: 150.0 mg/kg/injection, schedule: Q01DX001 (ip), vehicle: saline",98 % of control
COC(=O)CN1C(c2ccccc2)=CS(=O)(=O)C=C1c1ccccc1,T/C,[8],101 % of control
same,T/C,[9],97 % of control
same,T/C,[10],93 % of control
Nc1nc2ccc([N+](=O)[O-])cc2s1,T/C,"dose: 50.0 mg/kg/injection, schedule: Q01DX009 (ip), vehicle: Klucel (hydroxypropylcellulose) (HPC)",105 % of control
same,T/C,"dose: 100.0 mg/kg/injection, schedule: Q01DX009 (ip), vehicle: Klucel (hydroxypropylcellulose) (HPC)",104 % of control
same,T/C,"dose: 100.0 mg/kg/injection, schedule: Q04DX003 (ip), vehicle: saline",97 % of control
same,T/C,"dose: 200.0 mg/kg/injection, schedule: Q04DX003 (ip), vehicle: saline",101 % of control
same,T/C,"dose: 400.0 mg/kg/injection, schedule: Q04DX003 (ip), vehicle: saline",86 % of control
ClC(Cl)=C1SCCCS1,T/C,[16],96 % of control
same,T/C,[17],108 % of control
CC(=O)O/N=C\C(C)=N\OC(C)=O,T/C,"dose: 15.0 mg/kg/injection, schedule: Q01DX Z (ip), vehicle: saline",109 % of control
same,T/C,"dose: 30.0 mg/kg/injection, schedule: Q01DX Z (ip), vehicle: saline",109 % of control
same,T/C,"dose: 60.0 mg/kg/injection, schedule: Q01DX Z (ip), vehicle: saline",107 % of control
same,T/C,"dose: 120.0 mg/kg/injection, schedule: Q01DX Z (ip), vehicle: saline",107 % of control
Nc1nc(SCC(=O)c2ccccc2)c2[nH]cnc2n1,T/C,"dose: 117.0 mg/kg/injection, schedule: Q01DX009 (ip), vehicle: saline with Tween-80",153 % of control
same,T/C,"dose: 176.0 mg/kg/injection, schedule: Q01DX009 (ip), vehicle: saline with Tween-80",151 % of control
same,T/C,"dose: 200.0 mg/kg/injection, schedule: Q01DX009 (ip), vehicle: saline with Tween-80",104 % of control
same,T/C,"dose: 264.0 mg/kg/injection, schedule: Q01DX009 (ip), vehicle: saline with Tween-80",156 % of control
same,T/C,"dose: 400.0 mg/kg/injection, schedule: Q01DX009 (ip), vehicle: saline with Tween-80",152 % of control
CCOC(=O)NN(C(=O)OCC)C1COCCO1 (stereo not drawn),T/C,"dose: 50.0 mg/kg/injection, schedule: Q04DX002 (ip), vehicle: saline",98 % of control
same,T/C,[11],103 % of control
same,T/C,[12],103 % of control
O=C(Cc1ccccc1)c1ccc2c3c(ccc([N+](=O)[O-])c13)CC2,T/C,"dose: 100.0 mg/kg/injection, schedule: Q04DX003 (ip), vehicle: acetone",101 % of control
same,T/C,"dose: 200.0 mg/kg/injection, schedule: Q04DX003 (ip), vehicle: acetone",105 % of control
same,T/C,"dose: 400.0 mg/kg/injection, schedule: Q04DX003 (ip), vehicle: acetone",105 % of control
